The source of these data is patent US8518947B2, “(Heterocycle/tetrahydropyridine)-(piperazinyl)-1-alcanone and (heterocycle/dihydropyrrolidine)-(piperazinyl)-1-alcanone derivatives, and use thereof as p75 inhibitors” (Sanofi, priority 2009, dated 2013).

Structures can show the parent of a compound that is named as a salt.

One data set concerns the target T1, p75^NTR receptor (Homo sapiens, UniProt P08138).
T1 construct: the clone Bep 75, stably expressing the complete form of the human p75^NTR receptor; expressed in transfected cells; host or cells: SK-N-BE Bep 75 (human neuroblastoma clone stably expressing the receptor); the soluble p75NTR-AP came from the supernatant of transiently transfected HEK293 cells
T1 sequence (P08138 29-427): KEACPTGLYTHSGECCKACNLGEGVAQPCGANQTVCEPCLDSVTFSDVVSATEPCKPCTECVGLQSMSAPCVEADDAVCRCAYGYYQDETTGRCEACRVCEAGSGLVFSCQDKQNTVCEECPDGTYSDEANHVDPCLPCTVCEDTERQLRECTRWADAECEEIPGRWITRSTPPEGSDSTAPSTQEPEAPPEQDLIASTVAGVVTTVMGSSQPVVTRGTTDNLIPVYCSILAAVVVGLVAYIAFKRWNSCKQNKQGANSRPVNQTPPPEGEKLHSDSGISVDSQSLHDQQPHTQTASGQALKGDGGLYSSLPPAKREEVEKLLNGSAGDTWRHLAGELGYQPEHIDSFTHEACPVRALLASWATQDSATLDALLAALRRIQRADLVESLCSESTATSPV
Put plainly: Study of the dimerization of the p75NTR receptor independently of its ligand (binding of soluble p75NTR-alkaline phosphatase to SK-N-BE Bep 75 cells). Conditions: 1 hour preincubation at 37° C., soluble p75NTR-alkaline phosphatase 10 nM. As for the experimental part:
(§1) The SK-N-BE parent strain (human neuroblastoma) and the clone Bep 75, stably expressing the complete form of the human p75^NTR receptor (SK-N-BE Bep 75) are conventionally cultured in an RPMI culture medium containing FCS (5%), sodium pyruvate (1 mM) and glutamine (4 mM). For the SK-N-BE Bep 75 cells, hygromycin (200 μl/20 ml of medium) is added as selection agent.
Study of the Dimerization of the p75^NTR Receptor Independently of its Ligand
The study of the dimerization of the p75^NTR receptor is performed on a cell suspension of the strain SK-N-BE Bep 75. The cells (2.5×10^4 cells/well) are placed in wells (96-well plate) for 24 hours, and then preincubated for 1 hour at 37° C. in the presence or absence of the compounds according to the invention. Supernatent, obtained from a culture of human cells of HEK293 renal origin expressing, after 48 hours of transfection, and secreting a soluble form of the p75^NTR receptor (extracellular part of the receptor) coupled to an alkaline phosphatase, the latter at a final concentration of 10 nM, is then added. The quantification of the specific binding of the soluble receptor to the receptor present on SK-N-BE Bep 75 cells is determined by measuring the enzyme activity of the alkaline phosphatase after incubation of the cells for 1 hour at 37° C. in the presence of the supernatant. After filtering and transferring the filters into 24-well plates, the alkaline phosphatase activity is determined by adding CDP-Star chemoluminescent substrate (ready-to-use, Roche).

Data set [1] has as its system strains of human neuroblastomas SH-SY-5Y and SK-N-BE Bep 75. Put plainly: Measurement of the apoptosis (cell death detection ELISA, cytoplasmic histones associated with DNA fragments). Format: cell-based. Conditions: SH-SY-5Y (48 hours) and SK-N-BE Bep 75 (24 hours), NGF 10 ng/ml or beta-amyloid peptide 10 μM, cell line not stated, read-out: IC50 in the apoptosis test. The procedure:
The SH-SY-5Y strain (human neuroblastoma) is conventionally cultured in a DMEM culture medium (Dulbecco's Modified Eagle's Medium) (Gibco BRL, France) containing FCS (5%) (fetal calf serum) (Boehringer Mannheim, Germany), sodium pyruvate (1 mM) and glutamine (4 mM) in collagen-covered culture flasks (Becton Dickinson, France).
as §1
Measurement of the Apoptosis
The cells (strains of human neuroblastomas SH-SY-5Y and SK-N-BE Bep 75) are placed in Petri dishes 35 mm in diameter (Biocoat collagenl, (10^5 cells/well)) in a suitable culture medium containing 5% FCS, for 24 hours. The culture medium is then removed, the cells are rinsed with PBS (Dulbecco's Phosphate-buffered saline), and then either fresh medium containing 5% FCS, or medium containing NGF (at a concentration of 10 ng/ml), or beta-amyloid peptide (A1β1-40) (at a concentration of 10 μM) is then added, in the presence or absence of the compounds according to the invention. The apoptosis levels are measured 48 hours after the treatments in the case of the strain SH-SY-5Y, and 24 hours later in the case of the strain SK-N-BE Bep 75, by quantifying the cytoplasmic histones associated with the DNA fragments (cell death detection ELISA, Boehringer Mannheim, Germany). The apoptosis levels are expressed as the amount of oligonucleosomes/10^5 cells. Each value corresponds to the average of 9 experimental points distributed over 3 independent experiments.
In general terms: An ELISA detects its analyte on a solid surface through an enzyme-linked reagent.

In general, IC50 refers to the concentration at which inhibition is half-maximal. On to `C[C@@H]1CN(c2ncc(F)cn2)C[C@H](C)N1CC(=O)N1CC=C(c2cccc3ccoc23)CC1` [Compound 36, 1-(4-benzofuran-7-yl-3,6-dihydro-2H-pyridin-1-yl)-2-[(2S,6R)-4-(5-fluoropyrimidin-2-yl)-2,6-dimethylpiperazin-1-yl]ethanone], for which the IC50 on p75^NTR receptor came to 20 nM. Broadly, the melting point is the temperature of the solid-liquid transition. For `C[C@@H]1CN(c2ccc(C(F)(F)F)cn2)C[C@H](C)N1CC(=O)N1CC=C(c2cccc3ccoc23)CC1` [Compound 34, 1-(4-benzofuran-7-yl-3,6-dihydro-2H-pyridin-1-yl)-2-[(2S,6R)-2,6-dimethyl-4-(5-trifluoromethylpyridin-2-yl)piperazin-1-yl]ethanone], the melting point is 138 to 139 °C. The same compound gave a half-inhibitory concentration (IC50) at p75^NTR receptor of 0.94 nM. For the same compound, the IC50 in data set [1] was determined as 3.39 nM. Consider `CC1CN(c2cnccn2)CC(C)N1CC(=O)N1CC=C(c2cccc3ccsc23)CC1` (stereo not shown) [Compound 1, 1-(4-benzo[b]thiophen-7-yl-3,6-dihydro-2H-pyridin-1-yl)-2-(3,5-dimethyl-2,3,5,6-tetrahydro[1,2′]bipyrazinyl-4-yl)ethanone], for which the 50% inhibitory concentration (IC50) on p75^NTR receptor turned out to be 0.08 nM.

Take `C[C@@H]1CN(c2ccc3ccccc3n2)C[C@H](C)N1CC(=O)N1CC=C(c2cccc3ccsc23)CC1` [Compound 19, 1-(4-benzo[b]thiophen-7-yl-3,6-dihydro-2H-pyridin-1-yl)-2-((2S,6R)-2,6-dimethyl-4-quinolin-2-ylpiperazin-1-yl)ethanone]: in data set [1], the 50% inhibitory concentration (IC50) is 1.07 nM. Regarding `C[C@@H]1CN(c2ccc(C(F)(F)F)cn2)[C@@H](C)CN1CC(=O)N1CC=C(c2cccc3ccoc23)CC1` [Compound 14, 1-(4-benzofuran-7-yl-3,6-dihydro-2H-pyridin-1-yl)-2-[(2R,5S)-2,5-dimethyl-4-(5-trifluoromethylpyridin-2-yl)piperazin-1-yl]ethanone], the half-maximal inhibitory concentration (IC50) at p75^NTR receptor is 1.09 nM; in data set [1], 1.33 nM. In turn, `COC(=O)c1ccc(N2C[C@@H](C)N(CC(=O)N3CC=C(c4ccc5sc(C)cc5c4)CC3)[C@@H](C)C2)nc1` [Compound 61, Methyl 6-((3S,5R)-3,5-dimethyl-4-{2-[4-(2-methylbenzo[b]thiophen-5-yl)-3,6-dihydro-2H-pyridin-1-yl]-2-oxoethyl}piperazin-1-yl)nicotinate] showed a melting point of 148 to 150 °C. Still for that read-out and setting: for `C[C@@H]1CN(c2ncc(F)cn2)C[C@H](C)N1CC(=O)N1CC=C(c2ccc3c(c2)OCCO3)CC1` (as salt: oxalate) [Compound 44, 1-[4-(2,3-dihydrobenzo[1,4]dioxin-6-yl)-3,6-dihydro-2H-pyridin-1-yl]-2-[(2S,6R)-4-(5-fluoropyrimidin-2-yl)-2,6-dimethylpiperazin-1-yl]ethanone] the value was 90 to 91 °C. Regarding `COC(=O)c1ccc(N2C[C@@H](C)N(CC(=O)N3CC=C(c4cccc5ccsc45)CC3)[C@@H](C)C2)nc1` (as salt: HCl) [Compound 58, Methyl 6-{(3S,5R)-4-[2-(4-benzo[b]thiophen-7-yl-3,6-dihydro-2H-pyridin-1-yl)-2-oxoethyl]-3,5-dimethylpiperazin-1-yl}nicotinate], the melting point was 208 to 210 °C. Still for that read-out and setting: as for `O=C(CN1CCN(c2ccnc3cc(Cl)ccc23)CC1)N1CC=C(c2cccc3ccoc23)CC1` (as salt: oxalate) [Compound 99, 1-(4-benzofuran-7-yl-3,6-dihydro-2H-pyridin-1-yl)-2-[4-(7-chloroquinolin-4-yl)piperazin-1-yl]ethanone], the figure is 99 to 100 °C. As to `O=C(CN1CCN(c2ccc3ccccc3n2)CC1)N1CC=C(c2cccc3ccsc23)CC1` [Compound 105, 1-(4-benzo[b]thiophen-7-yl-3,6-dihydro-2H-pyridin-1-yl)-2-(4-quinolin-2-ylpiperazin-1-yl)ethanone], the melting point was in the range of 177 to 178 °C. The same measure, in the same setting: for `C[C@@H]1CN(c2ncc(F)cn2)C[C@H](C)N1CC(=O)N1CC=C(c2c[nH]c3ccccc23)CC1` [Compound 100, 2-[(2S,6R)-4-(5-fluoropyrimidin-2-yl)-2,6-dimethylpiperazin-1-yl]-1-[4-(1H-indol-3-yl)-3,6-dihydro-2H-pyridin-1-yl]ethanone] the value was 235 to 237 °C.

On to `COC(=O)c1ccc(N2C3CCC2CN(CC(=O)N2CC=C(c4ccc5c(c4)OCCO5)CC2)C3)nc1`, for which the melting point fell in the range of 172 to 174 °C. The same measure, in the same setting: for `O=C(CN1CC2CCC(C1)N2c1ncc(F)cn1)N1CC=C(c2csc3ccccc23)CC1` the value was 172 to 174 °C.
